Test results taken from ChEMBL document CHEMBL3734731 (Medchemcomm, 2015).
Numbered stars: 1 amine (or outer) side, 2 acyl side, 3 side chain; on linkers, the order of the positions; unused ones are H or OH. Square brackets hold non-standard residues; d marks the D form. Peptide text beside a SMILES is read from it. * marks the point of attachment. NMeW = CN[C@@H](Cc1c[nH]c2ccccc12)C(=O)O; X2 = NS(=O)(=O)N[C@@H](CC(=O)O)C(=O)*; NMeY = CN[C@@H](Cc1ccc(O)cc1)C(=O)O; X1 = NC(=O)N[C@@H](CC(=O)O)C(=O)*; NMeF = CN[C@@H](Cc1ccccc1)C(=O)O; NMeI = CC[C@H](C)[C@H](NC)C(=O)O; Aad = N[C@@H](CCCC(=O)O)C(=O)O; NMeD = CN[C@@H](CC(=O)O)C(=O)O; Methoxyoxalyl = COC(=O)C(=O)*; NMeL = CN[C@@H](CC(C)C)C(=O)O; Suc = O=C(CCC(=O)[*:2])[*:1]; NMeV = CN[C@H](C(=O)O)C(C)C; Oxamoyl = NC(=O)C(=O)*; CONHOH = O=C(NO)*

Tests used:
[1] = molecular target: T1, Neuromedin-K receptor (Homo sapiens, UniProt P29371); assay: Displacement of ([125I]His3-MePhe7)-NKB from NK3 receptor (unknown origin) expressed in CHO cells by scintillation counter; type: cell-based
T1 sequence (P29371 whole entry): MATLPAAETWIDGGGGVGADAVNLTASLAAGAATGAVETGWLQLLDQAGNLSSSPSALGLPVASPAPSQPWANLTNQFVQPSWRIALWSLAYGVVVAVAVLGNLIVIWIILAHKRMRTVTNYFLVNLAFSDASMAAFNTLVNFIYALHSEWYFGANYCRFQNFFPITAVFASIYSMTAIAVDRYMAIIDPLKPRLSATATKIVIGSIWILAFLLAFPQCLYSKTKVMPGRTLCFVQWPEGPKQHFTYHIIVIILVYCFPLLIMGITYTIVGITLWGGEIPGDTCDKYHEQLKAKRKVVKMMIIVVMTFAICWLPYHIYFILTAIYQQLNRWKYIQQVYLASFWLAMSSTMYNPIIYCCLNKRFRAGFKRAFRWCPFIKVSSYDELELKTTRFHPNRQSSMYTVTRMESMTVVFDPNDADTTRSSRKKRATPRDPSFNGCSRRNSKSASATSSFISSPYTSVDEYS

[2] = molecular target: T1, Neuromedin-K receptor; assay: Agonist activity at human NK3 receptor expressed in CHO cells assessed as calcium influx relative to 100 nM senktide; type: functional, cell-based
[3] = molecular target: Substance-P receptor (Homo sapiens, UniProt P25103); assay: Displacement of [125I]-BH-SP from NK1 receptor (unknown origin) expressed in CHO cells by scintillation counter; type: cell-based
[4] = molecular target: T2, Substance-K receptor (Homo sapiens, UniProt P21452); assay: Displacement of [125I]-NKA from NK2 receptor (unknown origin) expressed in CHO cells by scintillation counter; type: cell-based
T2 sequence (P21452 whole entry): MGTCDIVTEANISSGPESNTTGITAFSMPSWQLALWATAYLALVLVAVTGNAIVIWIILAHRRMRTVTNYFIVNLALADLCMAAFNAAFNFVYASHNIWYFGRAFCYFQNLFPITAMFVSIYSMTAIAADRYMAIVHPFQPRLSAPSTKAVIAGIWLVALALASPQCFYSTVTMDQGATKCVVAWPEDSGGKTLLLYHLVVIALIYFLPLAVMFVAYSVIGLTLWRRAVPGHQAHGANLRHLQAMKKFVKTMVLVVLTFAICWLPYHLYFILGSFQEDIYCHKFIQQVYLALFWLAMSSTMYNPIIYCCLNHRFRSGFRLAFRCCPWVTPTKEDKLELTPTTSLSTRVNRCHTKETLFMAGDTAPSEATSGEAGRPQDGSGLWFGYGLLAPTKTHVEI

[5] = molecular target: T3, Neuromedin-K receptor (Homo sapiens) (UniProt P29371); assay: Potency index, ratio of EC50 for […] to EC50 for test compound for agonist activity at human NK3 receptor
T3 sequence (whole entry): T1 sequence (P29371 whole entry)

[6] = molecular target: T3, Neuromedin-K receptor (Homo sapiens); assay: Potency index, ratio of IC50 for […] to IC50 for test compound for binding affinity to NK3 receptor (unknown origin)

Substance-P receptor, sequence (P25103 whole entry): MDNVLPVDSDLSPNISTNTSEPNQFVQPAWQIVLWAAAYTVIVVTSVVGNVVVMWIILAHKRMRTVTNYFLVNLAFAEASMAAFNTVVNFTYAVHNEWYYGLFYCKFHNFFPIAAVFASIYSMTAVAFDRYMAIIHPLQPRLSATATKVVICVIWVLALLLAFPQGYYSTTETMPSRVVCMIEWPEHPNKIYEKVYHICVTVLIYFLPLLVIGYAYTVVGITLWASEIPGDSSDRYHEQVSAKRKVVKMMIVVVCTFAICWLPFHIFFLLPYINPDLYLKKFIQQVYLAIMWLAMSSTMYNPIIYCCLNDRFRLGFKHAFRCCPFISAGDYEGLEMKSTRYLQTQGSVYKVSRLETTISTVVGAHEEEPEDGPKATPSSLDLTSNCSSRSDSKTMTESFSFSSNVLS

SMILES | IC50 [1] [nM] | EC50 [2] [nM] | IC50 [3] [nM] | IC50 [4] [nM] | Ratio EC50 [5] | Ratio IC50 [6]
CSCC[C@H](NC(=O)[C@H](CC(C)C)NC(=O)CNC(=O)[C@H](Cc1ccccc1)N(C)C(=O)[C@H](Cc1ccccc1)NC(=O)[C@H](CCC(=O)O)NC(=O)CCC(=O)O)C(N)=O | 6.1 | 0.03 | > 10000 | > 10000 | 2 | 
CSCC[C@H](NC(=O)[C@H](CC(C)C)NC(=O)CNC(=O)[C@H](CC(=O)O)N(C)C(=O)[C@H](Cc1ccccc1)NC(=O)[C@H](CC(=O)O)NC(=O)CCC(=O)O)C(N)=O (Suc-DF[NMeD]GLM-NH2) | > 10000 |  |  |  |  | 
CSCC[C@H](NC(=O)[C@H](CC(C)C)NC(=O)CNC(=O)[C@H](Cc1ccccc1)N(C)C(=O)[C@H](Cc1ccccc1)NC(=O)[C@@H](CC(=O)O)NC(=O)[C@@H](CC(=O)O)NC(C)=O)C(N)=O | 55 | 0.017 | > 10000 | > 10000 |  | 
COC(=O)C(=O)N[C@@H](CC(=O)O)C(=O)N[C@@H](Cc1ccccc1)C(=O)N(C)[C@@H](Cc1ccccc1)C(=O)NCC(=O)N[C@@H](CC(C)C)C(=O)N[C@@H](CCSC)C(N)=O (Methoxyoxalyl-DF[NMeF]GLM-NH2) | 4.1 | 0.0029 | > 10000 | > 10000 |  | 
CSCC[C@H](NC(=O)[C@H](CC(C)C)NC(=O)CNC(=O)[C@H](Cc1ccccc1)N(C)C(=O)[C@H](Cc1ccccc1)NC(=O)[C@H](CC(=O)O)NC(=O)[C@@H](CC(=O)O)NC(C)=O)C(N)=O | 73 | 0.018 | > 10000 | > 10000 |  | 
CSCC[C@H](NC(=O)[C@H](CC(C)C)NC(=O)CNC(=O)[C@H](Cc1ccccc1)N(C)C(=O)[C@H](Cc1ccccc1)NC(=O)[C@H](CCC(=O)O)NC(=O)[C@@H](CC(=O)O)NC(C)=O)C(N)=O | 13 | 0.012 | > 10000 | > 10000 | 2 | 3
CSCC[C@H](NC(=O)[C@H](CC(C)C)NC(=O)CNC(=O)[C@H](Cc1c[nH]c2ccccc12)N(C)C(=O)[C@H](Cc1ccccc1)NC(=O)[C@H](CC(=O)O)NC(=O)CCC(=O)O)C(N)=O (Suc-DF[NMeW]GLM-NH2) | 123 | 0.033 | > 10000 | > 10000 |  | 
CSCC[C@H](NC(=O)[C@H](CC(C)C)NC(=O)CNC(=O)[C@H](Cc1ccccc1)N(C)C(=O)[C@H](Cc1ccccc1)NC(=O)[C@H](CC(=O)O)NS(N)(=O)=O)C(N)=O (X2-F[NMeF]GLM-NH2) | 5.6 | 0.0025 | > 10000 | > 10000 |  | 
CC[C@H](C)[C@@H](C(=O)NCC(=O)N[C@@H](CC(C)C)C(=O)N[C@@H](CCSC)C(N)=O)N(C)C(=O)[C@H](Cc1ccccc1)NC(=O)[C@H](CC(=O)O)NC(=O)CCC(=O)O (Suc-DF[NMeI]GLM-NH2) | 91 | 0.05 | > 10000 | > 10000 |  | 
CSCC[C@H](NC(=O)[C@H](CC(C)C)NC(=O)CNC(=O)[C@H](Cc1ccccc1)N(C)C(=O)[C@H](Cc1ccccc1)NC(=O)[C@H](CCCC(=O)O)NC(=O)CCC(=O)O)C(N)=O (Suc-[Aad]F[NMeF]GLM-NH2) | 9.9 | 0.019 | > 10000 | > 10000 | 2 | 
CSCC[C@H](NC(=O)[C@H](CC(C)C)NC(=O)CNC(=O)[C@H](Cc1ccccc1)N(C)C(=O)[C@H](Cc1ccccc1)NC(=O)[C@@H](CC(=O)O)NC(=O)[C@H](CC(=O)O)NC(C)=O)C(N)=O | 83 | 0.024 | > 10000 | > 10000 |  | 
CSCC[C@H](NC(=O)[C@H](CC(C)C)NC(=O)CNC(=O)[C@H](Cc1ccccc1)N(C)C(=O)[C@H](Cc1ccccc1)NC(=O)[C@H](CC(=O)O)NC(=O)C(N)=O)C(N)=O (Oxamoyl-DF[NMeF]GLM-NH2) | 7.9 | 0.011 | > 10000 | > 10000 |  | 
CSCC[C@H](NC(=O)[C@H](CC(C)C)NC(=O)CNC(=O)[C@H](Cc1ccccc1)N(C)C(=O)[C@H](Cc1ccccc1)NC(=O)[C@H](CC(=O)O)NC(=O)NN)C(N)=O | 34 | 0.006 | > 10000 | > 10000 |  | 
CSCC[C@H](NC(=O)[C@H](CC(C)C)NC(=O)CNC(=O)[C@H](Cc1ccccc1)N(C)C(=O)[C@H](Cc1ccccc1)NC(=O)[C@@H](CCC(=O)O)NC(=O)CCC(=O)O)C(N)=O | 24 | 0.084 | > 10000 | > 10000 |  | 
CSCC[C@H](NC(=O)[C@H](CC(C)C)NC(=O)CNC(=O)[C@H](CC(C)C)N(C)C(=O)[C@H](Cc1ccccc1)NC(=O)[C@H](CC(=O)O)NC(=O)CCC(=O)O)C(N)=O (Suc-DF[NMeL]GLM-NH2) | > 10000 |  |  |  |  | 
CSCC[C@H](NC(=O)[C@H](CC(C)C)NC(=O)CNC(=O)[C@H](Cc1ccccc1)N(C)C(=O)[C@H](Cc1ccccc1)NC(=O)[C@H](CC(=O)O)NC(=O)[C@H](CC(=O)O)NC(C)=O)C(N)=O | 68 | 0.031 | > 10000 | > 10000 |  | 
CSCC[C@H](NC(=O)[C@H](CC(C)C)NC(=O)CNC(=O)[C@H](Cc1ccccc1)N(C)C(=O)[C@H](Cc1ccccc1)NC(=O)[C@@H](CCC(=O)O)NC(=O)[C@H](CC(=O)O)NC(C)=O)C(N)=O | 37 | 0.018 | > 10000 | > 10000 |  | 
CSCC[C@H](NC(=O)[C@H](CC(C)C)NC(=O)CNC(=O)[C@H](Cc1ccc(O)cc1)N(C)C(=O)[C@H](Cc1ccccc1)NC(=O)[C@H](CC(=O)O)NC(=O)CCC(=O)O)C(N)=O (Suc-DF[NMeY]GLM-NH2) | 28 | 0.041 | > 10000 | > 10000 |  | 
CSCC[C@H](NC(=O)[C@H](CC(C)C)NC(=O)CNC(=O)[C@H](Cc1ccccc1)N(C)C(=O)[C@H](Cc1ccccc1)NC(=O)[C@H](CCC(=O)O)NC(=O)[C@H](CC(=O)O)NC(C)=O)C(N)=O | 7.7 | 0.0081 | > 10000 | > 10000 | 3 | 5
CSCC[C@H](NC(=O)[C@H](CC(C)C)NC(=O)CNC(=O)[C@H](Cc1ccccc1)N(C)C(=O)[C@H](Cc1ccccc1)NC(=O)[C@H](CC(=O)O)NC(=O)C(=O)O)C(N)=O | 3.6 | 0.083 | > 10000 | > 10000 |  | 10
CSCC[C@H](NC(=O)[C@H](CC(C)C)NC(=O)CNC(=O)[C@H](Cc1ccccc1)N(C)C(=O)[C@H](Cc1ccccc1)NC(=O)[C@@H](CC(=O)O)NC(=O)CCC(=O)O)C(N)=O |  |  |  | > 10000 |  | 
CSCC[C@H](NC(=O)[C@H](CC(C)C)NC(=O)CNC(=O)[C@H](C(C)C)N(C)C(=O)[C@H](Cc1ccccc1)NC(=O)[C@H](CC(=O)O)NC(=O)CCC(=O)O)C(N)=O (Suc-DF[NMeV]GLM-NH2) | 104 | 0.064 | > 10000 | > 10000 |  | 
CSCC[C@H](NC(=O)[C@H](CC(C)C)NC(=O)CNC(=O)[C@H](Cc1ccccc1)N(C)C(=O)[C@H](Cc1ccccc1)NC(=O)[C@@H](CCC(=O)O)NC(=O)[C@@H](CC(=O)O)NC(C)=O)C(N)=O | 68 | 0.017 | > 10000 | > 10000 |  | 
CSCC[C@H](NC(=O)[C@H](CC(C)C)NC(=O)CNC(=O)[C@H](Cc1ccccc1)N(C)C(=O)[C@H](Cc1ccccc1)NC(=O)[C@@H](CC(=O)O)NC(=O)C(=O)O)C(N)=O | 3.5 | 0.022 | > 10000 | > 10000 |  | 10
CSCC[C@H](NC(=O)[C@H](CC(C)C)NC(=O)CNC(=O)[C@H](Cc1ccccc1)N(C)C(=O)[C@H](Cc1ccccc1)NC(=O)[C@H](CC(=O)O)NC(=O)NO)C(N)=O ({CONHOH}-DF[NMeF]GLM-NH2) | 10 | 0.043 | > 10000 | > 10000 |  | 
CSCC[C@H](NC(=O)[C@H](CC(C)C)NC(=O)CNC(=O)[C@H](Cc1ccccc1)N(C)C(=O)[C@H](Cc1ccccc1)NC(=O)[C@H](CC(=O)O)NC(=O)[C@@H](N)CC(=O)O)C(N)=O (H-DDF[NMeF]GLM-NH2) | 175 | 0.063 | > 10000 | > 10000 |  | 
CSCC[C@H](NC(=O)[C@H](CC(C)C)NC(=O)CNC(=O)[C@H](Cc1ccccc1)N(C)C(=O)[C@H](Cc1ccccc1)NC(=O)[C@H](CC(=O)O)NC(N)=O)C(N)=O (X1-F[NMeF]GLM-NH2) | 39 | 0.013 | > 10000 | > 10000 |  | 
